Laboratory results: patent US10913751B2, “1,3-diazo-4-oxa-[3.3.1]-bicyclic derivatives, process for their manufacture and their use as a medicament, in particular for treating diabetes” (UNIVERSITA' DI PISA, priority 2017, dated 2021)

Assays:
[1] = test system: GLP-1 receptor; assay: ELISA assay of secreted GLP-1 forms (mSTC-1 GLP-1 sec CRC); format: cell-based; conditions: mSTC-1 cells, GLP-1 secretion, concentration-response curve, ELISA readout, FIG. 1; read-out: action as a GLP-1 receptor agonist (mSTC-1 GLP-1 sec CRC)
Protocol: The biological activity of the synthesised compounds was measured with an ELISA assay.
The biological activity of the compound (5S*,9R*)-9-phenyl-3-phenylacetyl-4-oxa-1,3-diazabicyclo[3.3.1]non-6-ene (Ib) as a GLP-1 receptor agonist was measured via an ELISA assay specifically modified in order to identify the forms of GLP-1 secreted.

Row | Structure (SMILES) | melting point [°C] | EC50 [1] [µM]
1 | CC[C@@H]1[C@@H]2C=CCN1CN(C(=O)Cc1ccccc1)O2 (relative stereo) [If, (5S*,9R*)-9-ethyl-3-phenylacetyl-4-oxa-1,3-diazabicyclo[3.3.1]non-6-ene] | 68 to 70 | –
2 | O=C(Cc1ccccc1)N1CN2CC=C[C@H](O1)[C@H]2c1ccccc1 (relative stereo) [Ib, (5S*,9R*)-9-phenyl-3-phenylacetyl-4-oxa-1,3-diazabicyclo[3.3.1]non-6-ene] | 156 to 159 | 11
